Patent publication US12070465B2, “Compositions and methods for the prevention and treatment of hearing loss” (Ting Therapeutics LLC, priority 2020, dated 2024)

Legend:
[1] = system: zebrafish neuromast hair cells; experiment: Zebrafish model for excitotoxicity (kainic acid induced hair cell death); assay type: in vivo; settings: for performance compared with Piperlongumine against kainic acid (KA) induced hair cell death: KA 300 μM 1 hour, then derivative 2 hours at 1 nM to 100 μM, better at at least one dose
Experimental: 5dpf Tg(Brn3c:mGFP) larvae were used for the experiments. Zebrafish were pretreated with kainic acid for one hour (300 μM) to mimic the excitotoxic damage induced by noise exposure, and then, post-treated with Piperlongumine-25 for 2 hours (al concentrations of 0.001 μM; 0.1 μM; 10 μM; and 100 μM). Control animal were treated with DMSO (−) or Piperlongumine-25 alone (+). Animals were then fixed and immunostained for GFP. Quantification was done by assessing three neuromasts in the same anatomic location of each animal (n=5). The data is plotted as mean+SD. Statistical testing was done with One-way ANOVA and Dunnett post-hoc test (P<0.0001 compared to KA).
Subsequently, animals were transferred to E3 water for 5 hours and fixed in 4% paraformaldehyde (PFA) overnight. Neuromast HCs were immunolabeled with anti-otoferlin (HCS-1, DSHB) and anti-GFP (NB100-1614, Novus Biologicals). These two markers were used to detect and count neuromast HCs to reduce the chances of missing some of the HCs after the treatment since as it was previously noticed that incubation with the compounds can affect GFP expression more difficult to detect under a fluorescence microscope. Otic, middle, and opercular neuromasts were identified, and HCs at SO3 (supraorbital line neuromast) and O1-2 (Otic line neuromasts) were manually counted using a Zeiss AxioSkop 2 fluorescence microscope with a 40× oil objective. Control animals were treated with DMSO (−) or Neo or GM alone (+) Animals were then fixed and immunostained for GFP and otoferlin. Quantification was done by assessing three neuromasts in the same anatomic location of each animal (n=5). The data is plotted as mean+SD. Statistical testing was done with One-way ANOVA and Dunnett post-hoc test (*P<0.05, **P<0.01, ***P<0.001 compared to either Neo or GM, respectively). […] For the screening of piperlongumine derivatives for protection against noise-induced hearing loss we employed a zebrafish model that mimics excitotoxic damage. Five-day post-fertilization (dpf) Tg(brn3c:GFP) larvae were incubated with 300 μM of KA for 1 hour followed by piperlongumine-25 for 2 hours at 0.001 μM, 0.1 μM, 10 μM, and 100 μM. DMSO and KA were used as controls.
5 dpf fish were incubated with KA 300 μM for 1 hour followed by a two-hour incubation with one of the piperlongumine derivatives at 1 nM to 100 μM. Animals were fixed and immunostained for the hair cell marker, otoferlin. Neuromast hair cells were counted under a fluorescence microscope. At least 3 neuromast of the rostral lateral line were inspected per fish, in a total of 6 fish per treatment. Results are presented as mean+/−SD. Control, KA only, PG only, PG+KA, derivatives that were no protective against excitotoxicity, derivatives that performed better than PG.
5dpf fish were incubated with KA 300 μM for 1 hour followed by one of the PG derivatives at different concentrations for additional 2 hours. Animals were fixed and immunostained for otoferlin. Neuromast hair cells were quantified in at least 3 rostral neuromasts per fish in a total of 6 fish per treatment. Results are expressed as mean+/−SD. Statistical analysis: One-way ANOVA *P<0.05, **P<0.01, P<0.001 versus KA alone. These five Piperlongumine derivatives performed better than Piperlongumine at least one dose.

[2] = system: zebrafish lateral line neuromast hair cells; experiment: Zebrafish lateral line neuromast hair cell counts after aminoglycoside (neomycin or gentamycin); assay type: in vivo, Danio rerio; settings: 5 dpf larvae
Excerpt: Now referring to FIGS. 5A-C,(E)-1-(3-(3,4,5-trimethoxyphenyl)acryloyl)-S,6-dihydropyridin-2(1H)-one (Piperlongumine) protects from aminoglycoside induced hair cell loss in zebrafish lateral line neuromasts in vivo. Zebrafish lateral line neuromast HC counts are commonly used in vivo models for screening otoprotectants. Danio rerio experimental larvae were obtained by pair mating of adult fish maintained at Creighton University by standard methods approved by the Institutional Animal Care and Use Committee. Fish used were Tg(pou4f3:mGFP) expressing a membrane bound GFP in HCs. […] The lateral-line neuromasts of zebrafish are a valuable system for testing protectivity of compounds against aminoglycoside toxicity in vivo, as their HCs are considered homologous to those in the mammalian inner ear and are readily accessible to drugs. […]
Subsequently, animals were transferred to E3 water for 5 hours and fixed in 4% paraformaldehyde (PFA) overnight. […] These two markers were used to detect and count neuromast HCs to reduce the chances of missing some of the HCs after the treatment since as it was previously noticed that incubation with the compounds can affect GFP expression more difficult to detect under a fluorescence microscope. […] Quantification was done by assessing three neuromasts in the same anatomic location of each animal (n=5). […]

[3] = system: mouse embryonic fibroblast (MEFs); experiment: MTT viability of mouse embryonic fibroblasts exposed to aminoglycosides; assay type: cell-based; settings: 15 hours
Experimental: (§1) MEFs were incubated for 15 hours with neomycin (100 μM) or gentamicin (8 μM) with or without Piperlongumine (0.1 nM-5 μM). Cell viability was assessed employing MTT (3-(4-,5-dimethylthiazol-2-yl)-2,5-diphenyltetrazolium bromide) viability kit test (Thermo Fisher). The data is plotted as mean+SD. Statistical testing was done with One-way ANOVA and Dunnett post-hoc test (*P<0.05, **P<0.01 compared to either Neo or GM, respectively).
as §1, with “Now referring to FIG. 7 (E)-1-(3-(3,4,5-trimethoxyphenyl)acryloyl)-S,6-dihydropyridin-2(1H)-one protects mouse embryonic fibroblast (MEFs) against aminoglycosides. MEFs” for “MEFs”, “without(E)-1-(3-(3,4,5-trimethoxyphenyl)acryloyl)-S,6-dihydropyridin-2(1H)-one” for “without Piperlongumine”, “μM) at 0.1 nM, 0.5 nM, 1 nM, 5 nM, 10 nM, 50 nM, 100 nM, and 500 nM.” for “μM).”

[4] = system: C57BL/6 (Cdh23 corrected) mice; experiment: ABR thresholds in kanamycin exposed mice; assay type: in vivo, mouse; settings: at 22.6 kHz; 40 mg/kg b.w. once a day for 17 days IP; kanamycin 700 mg/kg twice a day for 14 days; p=0.0408
Experimental: (§2) C57BI6 (Cdh23 corrected) (6-7 weeks old) were exposed to vehicle+kanamycin (Veh+Kan) (700 mg/kg b.w. twice a day for 14 days) (shown as circles with four breaks); or (E)-1-(3-(3,4,5-trimethoxyphenyl)acryloyl)-S,6-dihydropyridin-2(1H)-one+kanamycin (PLM+Kan) with (E)-1-(3-(3,4,5-trimethoxyphenyl)acryloyl)-S,6-dihydropyridin-2(1H)-one (40 mg/kg b.w. once a day for 17 days) (shown as circle no breaks). Age match controls are shown (age, shown as circle with three breaks). Auditory brainstem response (ABR) thresholds were recorded for frequencies (4 kHz, 5.6 kHz, 8 kHz, 16 kHz, 22.6 kHz, 32 kHz, 45.2 kHz, and 64 kHz) before and after treatment protocol. […] Statistical analysis was done with repeated measures ANOVA between groups.
Now referring to FIG. 8A, Piperlongumine protects from aminoglycoside toxicity in mice in vivo. 6-7-week-old C57BL/6 (Cdh23 corrected) were used, with a mix of males and females across experiments. […] Piperlongumine's protection against hearing impairment loss was assessed by measuring ABR threshold shifts in the mouse ear.
Animals were anesthetized with a mixture of ketamine/xylazine before ABR assessment. […] Evoked responses were amplified (20x), bandpass filtered (300-3,000 Hz) and average of 512 responses of 10 ms duration was recorded. […]

[5] = system: C57BL/6 (Cdh23 corrected) mice; experiment: General toxicity in mice over the 17-day treatment regimen; assay type: in vivo, mouse; settings: 40 mg/kg b.w. for 17 days, with and without kanamycin
Experimental: as §2
Now referring to FIG. 8A, Piperlongumine protects from aminoglycoside toxicity in mice in vivo. 6-7-week-old C57BL/6 (Cdh23 corrected) were used, with a mix of males and females across experiments. Procedures were approved by the IACUC committee of the Creighton University.) Mice were treated with Piperlongumine (40 mg/kg b.w., for 17 days, IP) with or without kanamycin treatment (700 mg/kg b.w. for 14 days twice a day, s.q.). Piperlongumine's protection against hearing impairment loss was assessed by measuring ABR threshold shifts in the mouse ear.
Age-control group mice were administered saline. […] Data are presented as mean+SD, n=3-4/group.

COc1cccc(/C=C/C(=O)N2CCCCC2=O)c1 [PG25]
protection of neuromast hair cells from excitotoxic damage induced by kainic acid ([1]; 300 μM KA 1 hour, then compound 2 hours at 0.001 μM, 0.1 μM, 10 μM, 100 μM): protects neuromast hair cells from excitotoxic damage | performance compared with Piperlongumine against kainic acid (KA) induced hair cell death [1]: better performance than Piperlongumine

COc1cc(/C=C/C(=O)N2CCC=CC2=O)cc(OC)c1OC [Piperlongumine, (E)-1-(3-(3,4,5-trimethoxyphenyl)acryloyl)-S,6-dihydropyridin-2(1H)-one]
protection from gentamycin-induced hair cell death ([2]; 1 hour pre-incubation then co-incubation with 100 μM gentamycin for 1 hour): protects zebrafish neuromasts from gentamycin-induced hair cell death | protection from neomycin-induced hair cell death ([2]; 1 hour pre-incubation then co-incubation with 200 μM Neomycin for 30 minutes): protects zebrafish neuromasts from neomycin-induced hair cell death | protection of MEFs against gentamycin (cell viability, MTT) ([3]; gentamicin 8 μM, observed at 0.1 nM to 1 nM): 100% | protection of MEFs against neomycin (cell viability, MTT) ([3]; neomycin 100 μM, observed at 0.1 nM to 10 nM): 100% | protection of ABR threshold against kanamycin [4]: significant protection | general toxicity [5]: not toxic

O=C(/C=C/c1ccc2c(c1)OC(F)(F)O2)N1CCCCC1=O [PG 54]
performance compared with Piperlongumine against kainic acid (KA) induced hair cell death [1]: better performance than Piperlongumine

O=C(/C=C/c1ccccc1)N1CCC1=O [PG 18]
performance compared with Piperlongumine against kainic acid (KA) induced hair cell death [1]: better performance than Piperlongumine

O=C(/C=C/c1ccc2c(c1)OC(F)(F)O2)N1CCCCCC1=O [PG 53]
performance compared with Piperlongumine against kainic acid (KA) induced hair cell death [1]: better performance than Piperlongumine

O=C(/C=C/c1ccco1)N1CCC1=O [PG3]
performance compared with Piperlongumine against kainic acid (KA) induced hair cell death [1]: better performance than Piperlongumine
